Laboratory results published in patent publication US20250255889A1, “METHODS FOR TREATMENT SELECTION FOR CHRONIC LYMPHOCYTIC LEUKEMIA (CLL)” (The Broad Institute, Inc., priority 2022, published 2025).
Each block holds one compound with its values, some of them ahead of it.

Experiments:
[1] = system: healthy PBMCs (normal cell types CD14, CD19, CD3); assay: HT-DBP delta priming in healthy donor normal cells; type: cell-based, human; conditions: normal peripheral blood mononuclear cells
Description: FIG. 17 provides a heatmap showing median delta priming across healthy donors for the indicated normal cell types (CD14, CD19, and CD3).
The assay was robust, as indicated by an 0.92 median Pearson correlation across replicates (FIGS. 5A, 5B, 6A, and 6B). Additionally, the majority of drugs had greater effect on CLL samples than on healthy PBMCs (p<0.001, paired t-test), supporting their specificity (FIGS. 7A-7C).
Delta-priming was measured for the molecular features listed along the top of FIGS. 14, 17, and 32 using the HT-DBP screen. The molecular features included IGHV subtypes, epitypes, expression subtypes (i.e., expression clusters), mutations in driver genes, and recurrent copy-number events. A feature was included in the heatmap of FIG. 14 only if at least 2 patients in a DBP screen had the feature. Median delta-priming was computed across all BH3 peptides and across all patients within the feature. […] Plots showing molecular features for groups of 65 and 81 patients were also compiled (see FIGS. 19, 20).

[2] = system: primary CLL samples (CD19+ and CD5+ cells); assay: High-throughput dynamic BH3 profiling (HT-DBP): drug-induced apoptotic priming (delta priming), cytochrome c release after BH3 peptide; type: cell-based, human; conditions: for drug-induced apoptotic priming: across CLL subtypes, 65 primary CLL samples, 20 hours drug
Outline: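 Primary CLL cells (CD19+/CD5+) are treated with the agent or DMSO carrier, then briefly exposed to a fixed concentration of a promiscuous BH3 peptide such as BIM. Mitochondrial cytochrome c release serves as the priming surrogate. Delta priming is drug-treated priming minus DMSO-treated priming, run in high-throughput format.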

[3] = peptide BAD 0.3 uM, feature FBXW7
[4] = peptide BAD 0.3 uM, feature gain_19p13.3
[5] = peptide PUMA 1 uM, feature gain_16p11.2
[6] = peptide PUMA 1 uM, feature loss_2q31.1
[7] = peptide PUMA 1 uM, feature loss_7p22.2
[8] = peptide PUMA 1 uM, feature loss_10p12.2
[9] = peptide PUMA 1 uM, feature EC-i
[10] = peptide BAD 0.3 uM, feature BIRC3
[11] = peptide BAD 0.3 uM, feature EC-m2
[12] = peptide BAD 0.3 uM, feature ITIH2
[13] = peptide BAD 0.3 uM, feature MYD88
[14] = peptide BAD 0.3 uM, feature i-CLL
[15] = peptide BAD 0.3 uM, feature loss_3p21.31
[16] = peptide BAD 0.3 uM, feature loss_5p15.33
[17] = peptide BAD 0.3 uM, feature loss_7q36.1
[18] = peptide BAD 0.3 uM, feature loss_8p
[19] = peptide BAD 0.3 uM, feature loss_12p13.31a
[20] = peptide BAD 0.3 uM, feature loss_14q32.12
[21] = peptide BAD 0.3 uM, feature loss_17p13.1
[22] = peptide BAD 0.3 uM, feature loss_17p13.3
[23] = peptide BAD 0.3 uM, feature loss_17q11.2
[24] = peptide BIM 0.01 uM, feature EC-i
[25] = peptide BIM 0.01 uM, feature loss_1p36.11
[26] = peptide BIM 0.01 uM, feature loss_3p13
[27] = peptide BIM 0.01 uM, feature loss_10q24.32
[28] = peptide BIM 0.01 uM, feature loss_18q21.2
[29] = peptide BIM 0.01 uM, feature priortrt_Post
[30] = peptide MS1 2.5 uM, feature EC-m4

priming response in normal cell groups [1]: minimal priming response
Compound: CC1(C)CCC(CN2CCN(c3ccc(C(=O)NS(=O)(=O)c4ccc(NCC5CCOCC5)c([N+](=O)[O-])c4)c(Oc4cnc5[nH]ccc5c4)c3)CC2)=C(c2ccc(Cl)cc2)C1 [Venetoclax, venetoclax]
priming in CLL groups ([2]; CLL sample groups compared with normal PBMCs): potentially therapeutically relevant priming
drug-induced apoptotic priming by expression cluster ([2]; EC-m2, within M-CLL ECs): least effective
drug-induced apoptotic priming by expression cluster ([2]; EC-m3, within M-CLL ECs): most effective
direction ([2]; Feature EC-m2): Resistant
direction ([2]; Feature loss_13q14.3): Sensitive
drug-induced apoptotic priming [2]: highly effective
positive delta priming values (rank among drugs) ([2]; across all evaluated BH3 peptides, 42 drugs): top-ten drugs with the highest positive delta priming values
delta priming value of combined treatment ([2]; combined with MS1 peptide (MCL1 inhibitor), relative to alternative treatments): increased delta priming value
direction ([2]; peptide BAD 0.3 uM, feature EC-m3): Sensitive
direction ([2]; peptide BAD 0.3 uM, feature loss_13q14.3): Sensitive
direction ([2]; peptide BIM 0.01 uM, feature SAMHD1): Sensitive
direction ([2]; peptide MS1 2.5 uM, feature POT1): Sensitive
direction ([2]; peptide MS1 2.5 uM, feature gain_16p11.2): Sensitive
direction ([2]; peptide MS1 2.5 uM, feature loss_13q14.13): Sensitive
direction ([2]; peptide PUMA 1 uM, feature EC-m2): Resistant
direction ([2]; peptide PUMA 1 uM, feature loss_6q21): Resistant

Compound: CC(C)c1c(C(=O)Nc2ccccc2)c(-c2ccccc2)c(-c2ccc(F)cc2)n1CC[C@@H](O)C[C@@H](O)CC(=O)O [Atorvastatin]
direction ([2]; peptide BAD 0.3 uM, feature EC-u1): Sensitive
direction [2, 3]: Sensitive
direction ([2]; peptide BAD 0.3 uM, feature M-CLL): Resistant
direction ([2]; peptide BAD 0.3 uM, feature RFX7): Sensitive
direction ([2]; peptide BAD 0.3 uM, feature U-CLL): Sensitive
direction ([2]; peptide BAD 0.3 uM, feature ZMYM3): Sensitive
direction [2, 4]: Sensitive
direction ([2]; peptide BAD 0.3 uM, feature m-CLL): Resistant
direction ([2]; peptide BAD 0.3 uM, feature n-CLL): Sensitive
direction ([2]; peptide BIM 0.01 uM, feature EC-u1): Resistant
direction ([2]; peptide BIM 0.01 uM, feature FBXW7): Resistant
direction ([2]; peptide BIM 0.01 uM, feature RFX7): Resistant
direction ([2]; peptide BIM 0.01 uM, feature ZMYM3): Resistant
direction ([2]; peptide BIM 0.01 uM, feature gain_19p13.3): Resistant
direction ([2]; peptide BIM 0.01 uM, feature loss_2q31.1): Resistant
direction ([2]; peptide BIM 0.01 uM, feature loss_10p12.2): Resistant
direction ([2]; peptide BIM 0.01 uM, feature loss_10q24.2): Resistant
direction ([2]; peptide BIM 0.01 uM, feature n-CLL): Resistant
direction ([2]; peptide MS1 2.5 uM, feature RFX7): Resistant
direction ([2]; peptide MS1 2.5 uM, feature ZMYM3): Resistant
direction ([2]; peptide MS1 2.5 uM, feature loss_2q31.1): Resistant
direction ([2]; peptide MS1 2.5 uM, feature loss_10p12.2): Resistant
direction ([2]; peptide MS1 2.5 uM, feature loss_10q24.2): Resistant
direction ([2]; peptide MS1 2.5 uM, feature loss_11q22.3): Resistant
direction ([2]; peptide MS1 2.5 uM, feature n-CLL): Resistant
direction ([2]; peptide PUMA 1 uM, feature FBXW7): Resistant
direction ([2]; peptide PUMA 1 uM, feature RFX7): Resistant
direction ([2]; peptide PUMA 1 uM, feature ZMYM3): Resistant
direction [2, 5]: Resistant
direction [2, 6]: Resistant
direction [2, 7]: Resistant
direction [2, 8]: Resistant

Compound: Cc1cc(Nc2cc(CN3CCOCC3)c3nc(C)c(Cc4ccc(Cl)cc4F)n3n2)n[nH]1 [Gandotinib]
drug-induced apoptotic priming by expression cluster ([2]; EC-ul (U-CLL)): most sensitive
direction ([2]; Feature EC-i): Resistant
drug-induced apoptotic priming [2]: high priming
direction ([2]; peptide BAD 0.3 uM, feature EC-i): Resistant
direction ([2]; peptide BAD 0.3 uM, feature GNB1): Sensitive
direction [2, 9]: Resistant
direction ([2]; peptide PUMA 1 uM, feature GNB1): Sensitive

Compound: Cc1sc2c(c1C)C(c1ccc(Cl)cc1)=N[C@@H](CC(=O)OC(C)(C)C)c1nnc(C)n1-2 [JQ1]
direction ([2]; Feature EC-i): Sensitive
direction ([2]; Feature FBXW7): Sensitive
direction [2, 10]: Sensitive
dprim_pearson_corr [2, 10]: 0.6355
direction [2, 11]: Sensitive
dprim_pearson_corr [2, 11]: 0.3877
direction [2, 3]: Sensitive
dprim_pearson_corr [2, 3]: 0.5086
direction [2, 12]: Sensitive
dprim_pearson_corr [2, 12]: 0.6355
direction [2, 13]: Resistant
dprim_pearson_corr [2, 13]: −0.3438
direction [2, 4]: Sensitive
dprim_pearson_corr [2, 4]: 0.359
direction [2, 14]: Sensitive
dprim_pearson_corr [2, 14]: 0.3327
direction [2, 15]: Resistant
dprim_pearson_corr [2, 15]: −0.3438
direction [2, 16]: Resistant
dprim_pearson_corr [2, 16]: −0.3996
direction [2, 17]: Resistant
dprim_pearson_corr [2, 17]: −0.3438
direction [2, 18]: Resistant
dprim_pearson_corr [2, 18]: −0.3438
direction [2, 19]: Resistant
dprim_pearson_corr [2, 19]: −0.3996
direction [2, 20]: Resistant
dprim_pearson_corr [2, 20]: −0.3438
direction [2, 21]: Sensitive
dprim_pearson_corr [2, 21]: 0.507
direction [2, 22]: Resistant
dprim_pearson_corr [2, 22]: −0.3996
direction [2, 23]: Sensitive
dprim_pearson_corr [2, 23]: 0.6355
direction [2, 24]: Sensitive
dprim_pearson_corr [2, 24]: 0.3826
direction [2, 25]: Sensitive
dprim_pearson_corr [2, 25]: 0.4365
direction [2, 26]: Sensitive
dprim_pearson_corr [2, 26]: 0.3364
direction [2, 27]: Sensitive
dprim_pearson_corr [2, 27]: 0.4365
direction [2, 28]: Sensitive
dprim_pearson_corr [2, 28]: 0.4365
direction [2, 29]: Sensitive
dprim_pearson_corr [2, 29]: 0.3609
direction [2, 30]: Sensitive
dprim_pearson_corr [2, 30]: 0.3901
direction ([2]; peptide PUMA 1 uM, feature ATM): Resistant
direction [2, 9]: Resistant
direction ([2]; peptide PUMA 1 uM, feature MYD88): Resistant
direction [2, 5]: Resistant
direction ([2]; peptide PUMA 1 uM, feature loss_1p36.11): Sensitive
direction ([2]; peptide PUMA 1 uM, feature loss_1q21.3): Resistant
direction [2, 6]: Resistant
direction ([2]; peptide PUMA 1 uM, feature loss_3p13): Sensitive
direction ([2]; peptide PUMA 1 uM, feature loss_3p21.31): Resistant
direction ([2]; peptide PUMA 1 uM, feature loss_5p15.33): Resistant
direction [2, 7]: Resistant
direction ([2]; peptide PUMA 1 uM, feature loss_7q36.1): Resistant
direction ([2]; peptide PUMA 1 uM, feature loss_8p): Resistant
direction [2, 8]: Resistant
direction ([2]; peptide PUMA 1 uM, feature loss_10q24.32): Sensitive
direction ([2]; peptide PUMA 1 uM, feature loss_12p13.31a): Resistant
direction ([2]; peptide PUMA 1 uM, feature loss_14q32.12): Resistant
direction ([2]; peptide PUMA 1 uM, feature loss_16q22.1): Resistant
direction ([2]; peptide PUMA 1 uM, feature loss_17p13.3): Resistant
direction ([2]; peptide PUMA 1 uM, feature loss_18q21.2): Sensitive
